Tests used:
[1] = target: T1, Alpha-1A adrenergic receptor (Homo sapiens, UniProt P35348); experiment: Displacement of [125I]HEAT from adrenergic alpha1A receptor
T1 sequence (P35348 whole entry): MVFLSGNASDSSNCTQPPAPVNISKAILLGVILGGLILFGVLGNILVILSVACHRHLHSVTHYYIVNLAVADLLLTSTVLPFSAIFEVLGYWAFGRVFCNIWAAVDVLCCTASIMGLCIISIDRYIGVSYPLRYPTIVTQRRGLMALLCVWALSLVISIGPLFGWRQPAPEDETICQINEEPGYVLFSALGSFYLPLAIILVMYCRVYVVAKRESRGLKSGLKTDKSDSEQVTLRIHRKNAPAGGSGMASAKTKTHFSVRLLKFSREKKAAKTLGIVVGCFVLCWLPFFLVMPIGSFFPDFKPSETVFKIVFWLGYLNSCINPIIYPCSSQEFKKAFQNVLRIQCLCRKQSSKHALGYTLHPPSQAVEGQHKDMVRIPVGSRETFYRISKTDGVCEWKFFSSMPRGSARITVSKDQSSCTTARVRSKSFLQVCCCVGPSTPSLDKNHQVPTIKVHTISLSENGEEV

[2] = target: T2, Alpha-2A adrenergic receptor (Homo sapiens, UniProt P08913); experiment: Displacement of [125I]HEAT from adrenergic alpha2A receptor
T2 sequence (P08913 whole entry): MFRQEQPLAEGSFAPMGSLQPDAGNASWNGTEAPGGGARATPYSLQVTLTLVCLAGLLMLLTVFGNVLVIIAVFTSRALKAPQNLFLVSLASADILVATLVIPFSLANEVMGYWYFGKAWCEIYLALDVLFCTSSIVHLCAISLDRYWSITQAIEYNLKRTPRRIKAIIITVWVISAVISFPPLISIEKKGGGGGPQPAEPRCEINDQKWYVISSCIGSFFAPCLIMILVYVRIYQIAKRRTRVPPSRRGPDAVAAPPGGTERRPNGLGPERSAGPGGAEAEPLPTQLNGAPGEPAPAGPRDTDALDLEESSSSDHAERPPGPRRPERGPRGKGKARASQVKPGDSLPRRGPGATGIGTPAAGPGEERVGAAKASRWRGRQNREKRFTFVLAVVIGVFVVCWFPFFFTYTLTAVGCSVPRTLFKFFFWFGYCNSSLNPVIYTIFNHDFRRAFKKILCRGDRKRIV

[3] = target: T3, Alpha-2C adrenergic receptor (Homo sapiens, UniProt P18825); experiment: Displacement of [125I]HEAT from adrenergic Alpha-2C receptor
T3 sequence (P18825 whole entry): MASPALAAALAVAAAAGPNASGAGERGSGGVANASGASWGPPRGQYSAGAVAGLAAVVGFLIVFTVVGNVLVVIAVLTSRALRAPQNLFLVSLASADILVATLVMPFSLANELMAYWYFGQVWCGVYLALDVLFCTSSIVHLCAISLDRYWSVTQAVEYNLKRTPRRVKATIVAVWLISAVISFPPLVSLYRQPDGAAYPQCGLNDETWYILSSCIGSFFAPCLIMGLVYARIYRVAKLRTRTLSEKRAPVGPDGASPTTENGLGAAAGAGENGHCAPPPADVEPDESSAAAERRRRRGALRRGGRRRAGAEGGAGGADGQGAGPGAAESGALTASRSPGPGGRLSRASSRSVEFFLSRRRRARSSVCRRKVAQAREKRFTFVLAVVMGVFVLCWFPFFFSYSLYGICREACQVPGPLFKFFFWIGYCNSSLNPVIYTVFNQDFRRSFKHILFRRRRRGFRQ

[4] = target: T4, Alpha-2B adrenergic receptor (Homo sapiens, UniProt P18089); experiment: Displacement of [125I]HEAT from adrenergic alpha2B receptor
T4 sequence (P18089 whole entry): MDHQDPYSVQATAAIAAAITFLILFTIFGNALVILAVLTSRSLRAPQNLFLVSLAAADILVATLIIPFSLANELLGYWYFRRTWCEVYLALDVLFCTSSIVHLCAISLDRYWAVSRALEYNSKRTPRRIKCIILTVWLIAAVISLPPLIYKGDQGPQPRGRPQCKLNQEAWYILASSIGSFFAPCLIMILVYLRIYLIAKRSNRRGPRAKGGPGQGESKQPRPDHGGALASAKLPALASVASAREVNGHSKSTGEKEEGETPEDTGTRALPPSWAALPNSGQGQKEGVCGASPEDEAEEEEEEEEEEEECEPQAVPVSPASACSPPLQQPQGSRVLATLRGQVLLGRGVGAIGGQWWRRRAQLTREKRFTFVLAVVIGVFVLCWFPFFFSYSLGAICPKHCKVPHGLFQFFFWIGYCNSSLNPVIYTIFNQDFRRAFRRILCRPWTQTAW

D(4) dopamine receptor = target: T5, D(4) dopamine receptor (Homo sapiens, UniProt P21917); experiment: Displacement of [3H]N-methylspiperone from dopamine D4 receptor
T5 sequence (P21917 whole entry): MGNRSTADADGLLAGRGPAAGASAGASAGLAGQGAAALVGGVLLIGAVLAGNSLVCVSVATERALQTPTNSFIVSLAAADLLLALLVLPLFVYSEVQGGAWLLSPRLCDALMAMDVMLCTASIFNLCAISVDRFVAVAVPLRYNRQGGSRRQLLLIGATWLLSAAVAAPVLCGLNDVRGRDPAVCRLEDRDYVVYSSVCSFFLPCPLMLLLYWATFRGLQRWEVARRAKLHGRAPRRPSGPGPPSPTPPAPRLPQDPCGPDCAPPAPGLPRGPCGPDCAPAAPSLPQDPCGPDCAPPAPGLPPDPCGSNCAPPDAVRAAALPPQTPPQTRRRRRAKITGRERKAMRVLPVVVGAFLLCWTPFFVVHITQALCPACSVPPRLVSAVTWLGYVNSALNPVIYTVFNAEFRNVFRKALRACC

Histamine H1 receptor = Histamine H1 receptor (Homo sapiens, UniProt P35367); experiment: Displacement of [3H]pyrilamine from human histamine H1 receptor
Histamine H2 receptor = Histamine H2 receptor (Homo sapiens, UniProt P25021); experiment: Displacement of [3H]tiotidine from human histamine H2 receptor
Histamine H3 receptor = Histamine H3 receptor (Homo sapiens, UniProt Q9Y5N1); experiment: Displacement of [3H]alpha-methylhistamine from human histamine H3 receptor
Mu-type opioid receptor = Mu-type opioid receptor (Homo sapiens, UniProt P35372); experiment: Displacement of [3H]DAMGO from mu opioid receptor
[5] = target: Sigma non-opioid intracellular receptor 1 (Rattus norvegicus, UniProt Q9R0C9); experiment: Displacement of [3H]Pentazocine from rat sigma 1 receptor in rat PC12 cells; assay type: cell-based, PC-12
[6] = Displacement of [3H]DTG from rat sigma 2 receptor in rat PC12 cells; assay type: cell-based; conditions: pc-12
[7] = target: Sodium-dependent serotonin transporter (Homo sapiens, UniProt P31645); experiment: Displacement of [3H]citalopram from human SERT
[8] = Dissociation constant, pKa of the compound; assay type: physicochemical
[9] = Lipophilicity, log D of the compound; assay type: physicochemical; conditions: octanol/water

Sequence of Sodium-dependent serotonin transporter (P31645 whole entry): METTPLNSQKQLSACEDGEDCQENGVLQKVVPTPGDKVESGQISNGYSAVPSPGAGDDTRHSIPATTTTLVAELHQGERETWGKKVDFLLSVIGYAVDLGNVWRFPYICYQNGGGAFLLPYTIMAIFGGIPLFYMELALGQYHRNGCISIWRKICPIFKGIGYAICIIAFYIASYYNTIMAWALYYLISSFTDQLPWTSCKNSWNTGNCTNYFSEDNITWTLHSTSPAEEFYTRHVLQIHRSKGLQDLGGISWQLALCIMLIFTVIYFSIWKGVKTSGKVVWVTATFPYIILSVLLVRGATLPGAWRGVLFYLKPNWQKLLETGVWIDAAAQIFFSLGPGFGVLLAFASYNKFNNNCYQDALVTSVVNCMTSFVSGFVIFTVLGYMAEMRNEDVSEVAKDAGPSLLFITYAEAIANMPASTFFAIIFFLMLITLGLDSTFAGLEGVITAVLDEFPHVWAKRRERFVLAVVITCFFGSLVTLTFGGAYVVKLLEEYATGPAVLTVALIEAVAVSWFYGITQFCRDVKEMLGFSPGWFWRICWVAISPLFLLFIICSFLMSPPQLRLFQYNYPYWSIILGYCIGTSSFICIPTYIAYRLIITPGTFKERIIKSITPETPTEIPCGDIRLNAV
Sequence of Sigma non-opioid intracellular receptor 1 (Q9R0C9 whole entry): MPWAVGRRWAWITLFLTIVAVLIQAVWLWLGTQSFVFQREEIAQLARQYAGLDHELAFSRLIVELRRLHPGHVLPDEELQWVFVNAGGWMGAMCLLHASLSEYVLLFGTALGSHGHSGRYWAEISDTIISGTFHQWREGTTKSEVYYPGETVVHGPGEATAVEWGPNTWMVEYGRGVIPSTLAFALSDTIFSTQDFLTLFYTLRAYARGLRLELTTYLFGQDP
Sequence of Mu-type opioid receptor (P35372 whole entry): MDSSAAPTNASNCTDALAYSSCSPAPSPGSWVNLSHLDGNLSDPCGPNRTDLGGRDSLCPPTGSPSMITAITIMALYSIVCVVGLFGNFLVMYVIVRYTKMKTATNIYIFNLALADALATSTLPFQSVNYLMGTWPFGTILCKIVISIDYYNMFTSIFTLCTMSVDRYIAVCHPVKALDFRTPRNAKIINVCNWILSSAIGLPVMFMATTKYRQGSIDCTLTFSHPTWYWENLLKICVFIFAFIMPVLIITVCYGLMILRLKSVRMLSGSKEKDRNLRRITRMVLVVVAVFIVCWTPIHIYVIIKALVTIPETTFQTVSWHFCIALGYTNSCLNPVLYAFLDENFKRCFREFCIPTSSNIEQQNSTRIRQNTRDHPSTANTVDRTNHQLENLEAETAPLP
Sequence of Histamine H3 receptor (Q9Y5N1 whole entry): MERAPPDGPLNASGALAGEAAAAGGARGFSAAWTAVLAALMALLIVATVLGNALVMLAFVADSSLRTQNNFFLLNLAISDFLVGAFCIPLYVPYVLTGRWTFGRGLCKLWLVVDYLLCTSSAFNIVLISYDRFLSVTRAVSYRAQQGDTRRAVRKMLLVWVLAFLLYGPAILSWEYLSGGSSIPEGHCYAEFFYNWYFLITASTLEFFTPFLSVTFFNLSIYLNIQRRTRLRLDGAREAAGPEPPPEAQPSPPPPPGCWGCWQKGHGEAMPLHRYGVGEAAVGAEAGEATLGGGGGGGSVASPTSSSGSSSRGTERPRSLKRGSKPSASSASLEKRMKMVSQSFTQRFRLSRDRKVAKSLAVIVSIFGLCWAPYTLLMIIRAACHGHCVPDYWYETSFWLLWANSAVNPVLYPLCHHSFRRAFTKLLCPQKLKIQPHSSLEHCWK
Sequence of Histamine H1 receptor (P35367 whole entry): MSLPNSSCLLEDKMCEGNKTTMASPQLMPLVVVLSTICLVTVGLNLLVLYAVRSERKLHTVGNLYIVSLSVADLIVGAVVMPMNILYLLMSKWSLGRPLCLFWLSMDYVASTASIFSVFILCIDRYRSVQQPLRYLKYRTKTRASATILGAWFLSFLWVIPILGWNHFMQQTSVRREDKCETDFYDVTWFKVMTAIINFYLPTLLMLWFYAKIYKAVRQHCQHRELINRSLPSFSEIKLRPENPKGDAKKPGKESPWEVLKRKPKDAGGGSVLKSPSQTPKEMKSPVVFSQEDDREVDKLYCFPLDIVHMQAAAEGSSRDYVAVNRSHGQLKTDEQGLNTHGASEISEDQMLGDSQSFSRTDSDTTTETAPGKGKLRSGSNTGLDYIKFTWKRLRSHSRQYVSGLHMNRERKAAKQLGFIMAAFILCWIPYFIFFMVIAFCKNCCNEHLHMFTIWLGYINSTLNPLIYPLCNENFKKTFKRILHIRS
Sequence of Histamine H2 receptor (P25021 whole entry): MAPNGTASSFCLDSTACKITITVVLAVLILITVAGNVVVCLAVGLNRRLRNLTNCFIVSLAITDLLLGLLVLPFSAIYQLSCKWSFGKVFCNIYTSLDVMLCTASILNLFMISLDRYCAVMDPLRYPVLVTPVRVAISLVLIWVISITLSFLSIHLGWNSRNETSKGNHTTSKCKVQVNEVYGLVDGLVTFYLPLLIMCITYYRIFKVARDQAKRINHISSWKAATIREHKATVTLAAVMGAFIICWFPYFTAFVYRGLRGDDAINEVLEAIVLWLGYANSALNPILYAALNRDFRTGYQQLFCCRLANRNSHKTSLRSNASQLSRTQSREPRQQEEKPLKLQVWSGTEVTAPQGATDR

SMILES | Ki [1] | Ki [2] | Ki [3] | Ki [4] | Ki (D(4) dopamine receptor) | Ki (Histamine H1 receptor) | Ki (Histamine H2 receptor) | Ki (Histamine H3 receptor) | Ki (Mu-type opioid receptor) | Ki [5] | Ki [6] | Ki [7] | pKa [8] | logD [9] | pKa ([8]; read-out: pKa)
CNC(=O)C(CCN1CCC(O)(c2ccc(Cl)cc2)CC1)(c1ccccc1)c1ccccc1 | 9.9 nM | 1 nM | 2.4 nM | 7 nM | 1.1 nM | 4.2 nM | 1.7 nM | 9.3 nM | 0.6 nM | 0.8 nM | 1.9 nM | 6.2 nM | 7.2 |  | 
[11CH3]NC(=O)C(CCN1CCC(O)(c2ccc(Cl)cc2)CC1)(c1ccccc1)c1ccccc1 |  |  |  |  |  |  |  |  |  |  |  |  |  | 2.6 | 7.96
